Measurements reported in patent publication US11649222B2, “Compounds” (UNIVERSITETET I OSLO, priority 2016, dated 2023).
“And” between values parts separate entries of the source, which are not always exact repeats. Equal entries are not always repeated. Where two headings read alike, the source gives them in different places.

What was measured:
[1] = test system: K. pneumoniae K66-45 and P. aeruginosa K34-7; assay: Microbroth dilution MIC, carbapenem + inhibitor, two resistant clinical isolates; assay type: cell-based; settings: Example 26 25 mg/L, three batches; meropenem and doripenem
Method: (§1) • Plate bacterial strain(s) on appropriate media: • Gram-negative bacteria with ESBLs or carbapenemases: green agar plates with 100 mg/L ampicillin • Gram-negative bacteria without β-lactamases: green agar plates • Gram-positive bacteria (Staphylococci and Enterococci): blood agar plates • Incubate o.n. at 37° C. Day 2: Prepare the Bacterial Inoculum: • Prepare a 0.5 McFarland suspension of bacteria in 0.85% NaCl. (Should be used within 15 min of preparation). • Dilute the 0.5 McFarland suspension 1:100 into MH broth. Check the inoculum by diluting the prepared bacterial suspension 1:100 (10 μl bacterial suspension+990 μl 0.85% NaCl). Plate 10 μl of the dilution on MH agar plates (×2). Incubate o.n. at 37° C., count the colonies and calculate the final CFU/ml inoculum in the plate by multiplying the average number of colonies with 10000 and divide by 2. The final inoculum should be between 3-7×10^5 CFU/ml. • Add 50 μl of the prepared bacterial suspension to each well in the microtiter plate except negative growth control. Preparation of Compounds/Antibiotics • Calculate the desired concentration-range and volume of the compounds/antibiotics in the assay. […] Dilute the stock solution in MH broth. Make subsequent 2-fold dilutions in MH broth of the desired concentrations if a concentration range is to be tested (remember the extra dilution factor in the assay plate). Always include extra volume for pipetting. Take into consideration stock solutions that are made in buffers that have an effect on bacterial growth (e.g. DMSO).

[2] = Solution stability on storage, measured indirectly by MIC; assay type: physicochemical; settings: solution stored at 2-8° C.; MIC at 25 mg/L inhibitor
Excerpt: P. aeruginosa harboring VIM-2 and K. pneumonia bearing NDM-1 was used as two indicator strains.

human hepG2 cells = assay: In vitro toxicity in human hepG2 cells (AlamarBlue viability); assay type: cell-based; settings: for IC50: human hepG2 cells
In short: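 HepG2 cells at 20,000/well adhered overnight, then were exposed to compounds at 1 to 1×10^−6 mM (DMSO ≤1%) for 24 h at 37 °C. Viability was read with AlamarBlue (10% final) after a further 4 h at 37 °C.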

[3] = test system: Klebsiella pneumoniae strain 50752501 harbouring NDM-1; assay: In vivo peritonitis infection study in neutropenic mice; design: Score at sampling: scale not given here; settings: for Blood log CFU/ml mean / Blood log CFU/ml / Score at sampling / Pf log CFU/ml mean / Pf log CFU/ml: sampling T = 5; for Blood log CFU/ml / Score at sampling / Pf log CFU/ml: individual mice; for Pf log CFU/ml mean / Pf log CFU/ml: peritoneal fluid
Method: The purpose of this study was to investigate the synergy between a typical example of the present invention and a state of art carbapenem in a clinically relevant multiresistant Gram-negative bacterial strain harboring a metallo-β-lactamase in the treatment of live mice infected with the bacterial strain.
The mice were rendered neutropenic by injecting 0.5 ml cyclophosphamide solution intraperitoneally 4 days (approximately 200 mg/kg) and 1 day (approximately 100 mg/kg) prior to inoculation.
Fresh overnight colonies from a 5% Horse Blood Agar plate were suspended and diluted in sterile saline to approximately and 10^7 CFU/ml. Mice were inoculated intraperitoneally with 0.5 ml of the suspension. Approximately ½ hr prior to inoculation, mice were treated orally with 45 μl neurophen (20 mg ibuprofen/ml corresponding to approximately 30 mg/kg) as a pain relief.
Mice were treated subcutaneously in the neck region with.
Colony counts were determined from blood and peritoneal fluid at 1 and 5 hrs post inoculation. […] The mice were sacrificed immediately after blood sampling and a total of 2 ml sterile saline was injected i.p. and the abdomen gently massaged before it was opened and fluid sampled with a pipette. Each sample was then 10 fold serial diluted in saline and 20-μl spots, ranging from undiluted to a 10^6 dilution, were applied on agar plates in duplicates. […] All agar plates were incubated 18-22 hrs at 35° C. in ambient air.

rH glyoxylase II = rH glyoxylase II (Homo sapiens, UniProt Q16775); assay: Interaction with zinc-containing human enzyme; assay type: biochemical; settings: 62.5-500 μM, 30 min, 25° C.
[4] = test system: human serum albumin and α1-acid glycoprotein (AGP); settings: 500 μM Example 26; HSA and AGP 24:1 up to 140 μM
Method: Enzymes in the kit are immobilized at a solid phase. […] Buffer without inhibitor was included as a control. After incubation, the suspensions were centrifuged and diluted 1:10 in 50 mM HEPES buffer pH 7.5 supplemented with 1 μM zinc^2+ and VIM-2 (final concentration 1 nM).

E. cloacae (VIM) = assay: Microbroth dilution MIC of meropenem ± 25 mg/L inhibitor; assay type: cell-based
Method: as §1

P. mirabilis (NDM-1) = assay: as above; assay type: cell-based
Method: as §1

E. coli (VIM-1) = assay: as above; assay type: cell-based
Method: as §1

[5] = test system: M. morganii (OXA48+ NDM-1); assay: as above; assay type: cell-based
Method: as §1

K. pneumoniae (NDM-1) = assay: as above; assay type: cell-based
Method: as §1

C. freundii (NDM) = assay: as above; assay type: cell-based
Method: as §1

C. freundii (NDM-1) = assay: as above; assay type: cell-based
Method: as §1

K. pneumoniae (VIM) = assay: as above; assay type: cell-based
Method: as §1

K. pneumoniae (NDM-7) = assay: as above; assay type: cell-based
Method: as §1

P. stuartii (NDM) = assay: as above; assay type: cell-based
Method: as §1

P. stuartii (NDM-1) = assay: as above; assay type: cell-based
Method: as §1

[6] = Example 26 10 mg/kg s.c. + meropenem 33 mg/kg
[7] = Example 26 10 mg/kg s.c. + vehicle
[8] = Example 26 10 mg/kg s.c. + vehicle, 10 mg/kg
[9] = Example 26 33 mg/kg s.c. + meropenem 33 mg/kg
[10] = Example 26 33 mg/kg s.c. + vehicle
[11] = Example 26 33 mg/kg s.c. + vehicle, 33 mg/kg
[12] = Example 26 100 mg/kg s.c. + meropenem 33 mg/kg
[13] = Example 26 100 mg/kg s.c. + vehicle
[14] = Example 26 100 mg/kg s.c. + vehicle, 100 mg/kg
[15] = combination treatment with Example 26 and meropenem
[16] = K. pneumoniae NDM-1 (several strains)
[17] = Citrobacter freundii, read-out: MIC meropenem alone
[18] = Klebsiella pneumoniae, read-out: MIC meropenem alone
[19] = Providencia stuartii, read-out: MIC meropenem alone

CN(C[C@H](O)[C@@H](O)[C@H](O)[C@H](O)CO)C(=O)c1ccc(CN(Cc2ccccn2)Cc2ccccn2)nc1 [Example 26, 6-((bis(pyridin-2-ylmethyl)amino)methyl)-N-methyl-N-((2S,3R,4R,5R)-2,3,4,5,6-pentahydroxyhexyl)nicotinamide]
factor of potentiation of carbapenems [1]: 32-256 times
storage time at which a loss of activity was observed [2]: > 8 months
EC50 in hepG2 cells (human hepG2 cells; hepG2 cells): non-toxic
IC50 (human hepG2 cells; 24 hours, AlamarBlue, 8 replicates, read-out: IC50): > 1000 µM
IC50 (human hepG2 cells; read-out: IC50h): ≥ 116 µM
reduction of the CFU levels compared to vehicle treatment in blood and peritoneal fluid ([3]; 10-100 mg/kg Example 26 alone): did not result in reduction of the CFU levels
Blood log CFU/ml mean [3, 6]: 1.61 log CFU/ml
Blood log CFU/ml [3, 6]: 1.90 log CFU/ml and 1.00 log CFU/ml and 1.85 log CFU/ml and 1.70 log CFU/ml
Score at sampling [3, 6]: 2
Blood log CFU/ml mean [3, 7]: 5.88 log CFU/ml
Score at sampling [3, 7]: 2
Blood log CFU/ml [3, 8]: 6.02 log CFU/ml and 5.70 log CFU/ml and 5.90 log CFU/ml and 5.89 log CFU/ml
Blood log CFU/ml mean [3, 9]: 1.26 log CFU/ml
Blood log CFU/ml [3, 9]: 1.78 log CFU/ml (2×) and 1.00 log CFU/ml and 0.50 log CFU/ml
Score at sampling [3, 9]: 1
Blood log CFU/ml mean [3, 10]: 5.89 log CFU/ml
Score at sampling [3, 10]: 1
Blood log CFU/ml [3, 11]: 5.83 log CFU/ml and 5.54 log CFU/ml and 6.78 log CFU/ml and 5.40 log CFU/ml
Blood log CFU/ml mean [3, 12]: 1.18 log CFU/ml
Blood log CFU/ml [3, 12]: 1.30 log CFU/ml and 0.50 log CFU/ml and 1.90 log CFU/ml and 1.00 log CFU/ml
Score at sampling [3, 12]: 1
Blood log CFU/ml mean [3, 13]: 5.84 log CFU/ml
Score at sampling [3, 13]: 1
Blood log CFU/ml [3, 14]: 5.83 log CFU/ml and 6.05 log CFU/ml and 5.48 log CFU/ml and 6.02 log CFU/ml
lower CFU levels compared to vehicle treatment, blood [3, 15]: 3.95-4.38 log10
lower CFU levels compared to vehicle treatment, peritoneal fluid [3, 15]: 3.57-3.66 log10
Pf log CFU/ml mean [3, 6]: 3.83 log CFU/ml
Pf log CFU/ml [3, 6]: 4.18 log CFU/ml and 3.83 log CFU/ml and 3.60 log CFU/ml and 3.72 log CFU/ml
Pf log CFU/ml mean [3, 7]: 7.79 log CFU/ml
Pf log CFU/ml [3, 8]: 7.92 log CFU/ml and 7.68 log CFU/ml and 7.76 log CFU/ml and 7.81 log CFU/ml
Pf log CFU/ml mean [3, 9]: 3.80 log CFU/ml
Pf log CFU/ml [3, 9]: 3.88 log CFU/ml and 3.80 log CFU/ml and 3.68 log CFU/ml and 3.85 log CFU/ml
Pf log CFU/ml mean [3, 10]: 7.60 log CFU/ml
Pf log CFU/ml [3, 11]: 7.68 log CFU/ml and 7.51 log CFU/ml and 7.88 log CFU/ml and 7.35 log CFU/ml
Pf log CFU/ml mean [3, 12]: 3.74 log CFU/ml
Pf log CFU/ml [3, 12]: 3.65 log CFU/ml (2×) and 3.74 log CFU/ml and 3.92 log CFU/ml
Pf log CFU/ml mean [3, 13]: 7.93 log CFU/ml
Pf log CFU/ml [3, 14]: 8.24 log CFU/ml and 7.89 log CFU/ml and 7.63 log CFU/ml and 7.98 log CFU/ml
interaction with rH glyoxylase II (rH glyoxylase II): does not interact with rH glyoxylase II
effect of protein binding on inhibition of VIM-2 [4]: protein binding is not affecting the inhibitory activity
MIC meropenem + 25 mg/L Example 26 (E. cloacae (VIM)): <0.03 µg/mL
MIC meropenem + 25 mg/L Example 26 (P. mirabilis (NDM-1)): 0.125 µg/mL
MIC meropenem + 25 mg/L Example 26 (E. coli (VIM-1)): <0.03 µg/mL
MIC meropenem + 25 mg/L Example 26 [5]: 1 µg/mL
MIC meropenem + 25 mg/L Example 26 (K. pneumoniae (NDM-1); [16]): 0.125 µg/mL
MIC meropenem + 25 mg/L Example 26 (C. freundii (NDM)): 0.06 µg/mL
MIC meropenem + 25 mg/L Example 26 (C. freundii (NDM-1)): 0.06 µg/mL
MIC meropenem + 25 mg/L Example 26 (K. pneumoniae (VIM)): 0.06 µg/mL
MIC meropenem + 25 mg/L Example 26 (K. pneumoniae (NDM-7)): <0.03 µg/mL
MIC meropenem + 25 mg/L Example 26 (P. stuartii (NDM)): 0.25 µg/mL
MIC meropenem + 25 mg/L Example 26 (P. stuartii (NDM-1)): 0.06 µg/mL

C[C@@H](O)[C@H]1C(=O)N2C(C(=O)O)=C(S[C@@H]3CN[C@H](C(=O)N(C)C)C3)[C@H](C)[C@H]12 [meropenem, reference compound]
lower CFU levels compared to vehicle treatment, blood ([3]; meropenem alone): 2.5 log10
lower CFU levels compared to vehicle treatment, peritoneal fluid ([3]; meropenem alone): 2.2 log10
Pf log CFU/ml mean ([3]; vehicle + meropenem 33 mg/kg): 5.22 log CFU/ml
Pf log CFU/ml ([3]; vehicle + meropenem 33 mg/kg): 5.72 log CFU/ml and 4.60 log CFU/ml and 5.30 log CFU/ml and 5.24 log CFU/ml
Blood log CFU/ml mean ([3]; vehicle + meropenem 33 mg/kg): 2.98 log CFU/ml
Blood log CFU/ml ([3]; vehicle + meropenem 33 mg/kg): 3.51 log CFU/ml (2×) and 2.80 log CFU/ml and 2.10 log CFU/ml
Score at sampling ([3]; vehicle + meropenem 33 mg/kg): 2
MIC (E. cloacae (VIM); Enterobacter cloacae, read-out: MIC meropenem alone): 8 µg/mL
MIC (P. mirabilis (NDM-1); Proteus mirabilis, read-out: MIC meropenem alone): 32 µg/mL
MIC (E. coli (VIM-1); Escherichia coli, read-out: MIC meropenem alone): 0.5 µg/mL
MIC ([5]; Morganella morganii, read-out: MIC meropenem alone): 8 µg/mL
MIC meropenem alone (K. pneumoniae (NDM-1); [16]): 32 µg/mL
MIC (K. pneumoniae (NDM-1); Klebsiella pneumoniae, read-out: MIC meropenem alone, K. pneumoniae NDM-1 (several strains)): 64 µg/mL
MIC (C. freundii (NDM); [17]): 16 µg/mL
MIC (C. freundii (NDM-1); [17]): 4 µg/mL
MIC (K. pneumoniae (VIM); [18]): 4 µg/mL
MIC (K. pneumoniae (NDM-7); [18]): 64 µg/mL
MIC (P. stuartii (NDM); [19]): 64 µg/mL
MIC (P. stuartii (NDM-1); [19]): 8 µg/mL
